Tested on: quagga mussels
Experiment: Molluscicidal effects of compounds isolated from Pseudomonas broth (live mussel jar-test bioassay, procedures of US 20100266717)
Type: in vivo
Conditions: Conc 16 μg/ml
Experimental: The culture broth derived from the 10-L fermentation P. fluorescens in FM2-growth media is first centrifuge to separate the cells pellet and supernatant. The supernatant and the cell pellet were extracted separately using Amberlite XAD-7 resin (Asolkar et al., 2006) by shaking the cell suspension/supernatant with resin at 225 rpm for two hours at room temperature. The resin and cell mass are collected by filtration through cheesecloth and washed with DI water to remove salts. The resin, cell mass, and cheesecloth are then soaked for 2 h in acetone/methanol (50/50) after which the acetone/methanol is filtered and dried under vacuum using rotary evaporator to give two separate crude extract.(one for supernatant and other for cell pellets). The crude extracts were then fractionated separately by using reversed-phase C18 vacuum liquid chromatography (H2O/CH3OH; gradient […] to 0:100%) to give 7 fractions. These fractions are then concentrated to dryness using rotary evaporator and the resulting dry residues are screened for biological activity using both a live mussel jar-test bioassay with quagga mussels as well as a cell-based assay with a freshwater snail embryo cell line (Biomphalaria glabrata). The active fractions are then subjected to reversed phase HPLC (Spectra System P4000 (Thermo Scientific) to give pure compounds, which are then screened in above mentioned bioassays to locate/identify the active compounds. To confirm the identity of the compound, additional spectroscopic data such as LC/MS and NMR is recorded.
The potency of compounds isolated from Pseudomonas broth is tested using procedures described in the US Patent Application Pub. No. 20100266717.

Structure (SMILES) | % mortality 24 hr | % mortality 48 hr | % mortality 72 hr | % mortality 96 hr
CCCCCC/C=C/CCCCCCCC(=O)O [9-hexadecenoic acid] | 20 ± 14.1% | 25.5 ± 7.1% | 30 ± 14.1% | 30 ± 14.1%
CCCCCC[C@@H](O)C/C=C\CCCCCCCC(=O)O [Ricinoleic acid, ricinoleic acid] | 20 ± 0% | 20 ± 0% | 20 ± 0% | 20 ± 0%

From US20120121745A1, “AGENTS FOR THE CONTROL OF […]” (MARRONE BIO INNOVATIONS, INC., priority 2010, published 2012)
